Source: patent publication US20140107226A1, “METHODS FOR ENHANCING STABILITY OF POLYORTHOESTERS AND THEIR FORMULATIONS” (A.P. PHARMA, INC., priority 2008, published 2014)

Experiment: Granisetron in human plasma after APF530 (clinical pharmacokinetics)
Format: in vivo
Details: chemo-patients, human trials (FIGS. 3 and 4)

- clearance of granisetron: impaired clearance
SMILES: CN1C2CCCC1CC(NC(=O)c1nn(C)c3ccccc13)C2 (stereo not shown) [granisetron]
